Assay results: patent publication US10358469B2, “Methods and pharmaceutical compositions for the treatment of cancer” (INSERM (INSTITUT NATIONAL DE LA SANTÉ ET DE LA RECHERCHE …, priority 2014, dated 2019)

Key:
solid tumor cell lines = experiment: Cell viability (MTT) of an array of solid tumor cell lines under low serum; assay type: cell-based; details: increasing concentrations, 24 hours, low serum conditions, FIG. 1B
Procedure: (§1) (A) Karpas 1106, SU-DHL-5, SeAx and HUT-78 cells were plated at a densities of 6×10^3 in 96 well plates (100 μL total volume per well) and treated for 24 hours in a 37° C. incubator (5% CO2) with increasing concentrations of the Antp-AAC-11-LZ (363-399). 20 μL MTS reagent was then added to each well and plates were incubated for an additional 4 hours. Absorbance was measured at 490 nm using a 96-well plate reader. The extent to which the Antp-AAC-11-LZ (363-399) peptide inhibited cell proliferation was calculated as a percentage of the absorbance in each well containing the Antp-AAC-11-LZ (363-399) peptide relative to wells containing no peptide (negative control). […]
(§2) Viability of cells cultured in the 96-well culture plates was assessed by measuring mitochondrial dehydrogenase activity, using the colorimetric CellTiter 96® AQueous One Solution Cell Proliferation Assay (Promega), according to the manufacturer′ instructions. […] The color can then be quantified using a simple colorimetric assay. The results are read on a multiwall scanning spectrophotometer (ELISA reader).
(§3) The inventors evaluated the capacity of the Antp-AAC-11-LZ (363-399) peptide to induce cell death a panel of hematologic and solid tumor cell lines, both P53 positive and P53 negative, derived from different tissues of origin, under low serum conditions (0.5-5%). […]

[1] = Toxicity of peptide injection in nude mice; details: i.p. twice per week for 4 weeks
Procedure: Nude mice were injected intraperitoneally twice a week for 4 weeks with normal saline solution or the indicated doses of Antp-AAC-11-LZ (363-399) peptide (n=3-4 mice per group) and were monitored daily for body weight (mean±s.e.m).
Nude mice were injected intraperitoneally twice a week for 4 weeks with normal saline solution or the indicated doses of Antp-AAC-11-LZ (377-399) peptide (n=3-4 mice per group) and were monitored daily for body weight (mean±s.e.m).
We first evaluated the toxicity of the Antp-AAC-11-LZ (363-399) peptide in nude mice that were injected intraperitoneally twice per week for 4 weeks with the Antp-AAC-11-LZ (363-399) peptide or normal saline solution (dose range: 0.8-4.8 mg peptide/kg body weight; n=3-4 mice per group).
We first evaluated the toxicity of the Antp-AAC-11-LZ (377-399) peptide in nude mice that were injected intraperitoneally twice per week for 4 weeks with the Antp-AAC-11-LZ (377-399) peptide or normal saline solution (dose range: 1-6 mg peptide/kg body weight; n=3-4 mice per group).

[2] = test system: Karpas 1106, SU-DHL-5, SeAx and HUT-78 cells; experiment: Cell viability (MTS) of hematologic cancer cell lines under low serum; assay type: cell-based; details: increasing concentrations, 24 hours, low serum conditions (0.5-5%), FIG. 1A
Procedure: as §1, §2, §3

A549 cells = experiment: Cell viability (MTT) of A549 cells under low serum / serum deprivation; assay type: cell-based
Procedure: (A) Karpas 1106, SU-DHL-5, SeAx and HUT-78 cells were plated at a densities of 6×10^3 in 96 well plates (100 μL total volume per well) and treated for 24 hours in a 37° C. incubator (5% CO2) with increasing concentrations of the Antp-AAC-11-LZ (363-399). 20 μL MTS reagent was then added to each well and plates were incubated for an additional 4 hours. Absorbance was measured at 490 nm using a 96-well plate reader. The extent to which the Antp-AAC-11-LZ (363-399) peptide inhibited cell proliferation was calculated as a percentage of the absorbance in each well containing the Antp-AAC-11-LZ (363-399) peptide relative to wells containing no peptide (negative control). Each bar represents the mean±s.d. from at least three independent experiments. (B) Indicated cells were plated at a densities of 4.5×10^3 in 96 well plates (100 μL total volume per well) and allowed to attach overnight in a 37° C. incubator (5% CO2). Media was removed from cells and replaced with media containing Antp-AAC-11-LZ (363-399) peptide at various concentrations (100 μL total volume per well) peptide and the plates were incubated for 24 hours. The MTT assay was then completed and data analysis was performed as described herein. […] A549 cells were plated at a densities of 4.5×10^3 in 96 well plates (100 μL total volume per well) and allowed to attach overnight in a 37° C. incubator (5% CO2). Media was removed from cells and replaced with media containing the indicated peptides at 10 μM (100 μL total volume per well) and the plates were incubated for 24 hours. The MTT assay was then completed and data analysis was performed as described herein.
(A) A549 cells were plated at a densities of 4.5×10^3 in 96 well plates (100 μL total volume per well) and allowed to attach overnight in a 37° C. incubator (5% CO2). Media was removed from cells and replaced with media containing the indicated peptides at various concentrations (100 μL total volume per well) peptide in the absence of serum and the plates were incubated for 24 hours. The MTT assay was then completed and data analysis was performed as described herein. (B) A549 or HaCat cells were plated at a densities of 4.5×10^3 in 96 well plates (100 μL total volume per well) and allowed to attach overnight in a 37° C. incubator (5% CO2). Media was removed from cells and replaced with media containing the indicated peptides at 10 μM (100 μL total volume per well) peptide in the absence of serum and the plates were incubated for 24 hours. The MTT assay was then completed and data analysis was performed as described herein.
A549 cells were plated at a densities of 4.5×10^3 in 96 well plates (100 μL total volume per well) and allowed to attach overnight in a 37° C. incubator (5% CO2). Cells were left untreated or pre-treated with 100 μM Z-VAD-FMK for 2 h. […] The MTT assay was then completed and data analysis was performed as described herein.
(A) A549 cells were plated at a densities of 4.5×10^3 in 96 well plates (100 μL total volume per well) and allowed to attach overnight in a 37° C. incubator (5% CO2). Media was removed from cells and replaced with media containing the indicated Antp-AAC-11-LZ peptides at various concentrations (100 μL total volume per well) peptide and the plates were incubated for 24 hours. The MTT assay was then completed and data analysis was performed as described herein. (B) A549 or HaCat cells were plated at a densities of 4.5×10^3 in 96 well plates (100 μL total volume per well) and allowed to attach overnight in a 37° C. incubator (5% CO2). Media was removed from cells and replaced with media containing the indicated peptides at 10 μM (100 μL total volume per well) peptide in the absence of serum and the plates were incubated for 24 hours. The MTT assay was then completed and data analysis was performed as described herein.

[3] = test system: normal cells (HaCat, NCTC and human primary fibroblasts); experiment: Cell viability (MTT) of normal cells; assay type: cell-based; details: increasing concentrations, 24 hours, FIG. 1B

Ac-RQIKIWFKKQNRRMKWKKAKLNAEKLKDFKIRLQYFARGLQVYIRQLRLALQGKT-NH2 [Antp-AAC-11-LZ (363-399)]
cell viability loss of the cancer cell lines (solid tumor cell lines): marked cell viability loss | mortality ([1]; 0.8-4.8 mg peptide/kg body weight): No mice died | body weight difference between groups ([1]; 0.8-4.8 mg peptide/kg body weight, FIG. 8A): no significant difference | toxicity to kidney, lungs, heart, liver, pancreas and spleen ([1]; 0.8-4.8 mg peptide/kg, end of experiment): no obvious toxicity | loss of cellular viability [2]: drastic loss of cellular viability | cellular viability (A549 cells; 2 µM): 97 % of control | influence of cycloheximide on peptide induced-cytotoxicity (A549 cells; 10 μM cycloheximide, various peptide concentrations, data not shown): had no influence | induction of cell death of A549 cells (A549 cells; 10 μM, serum deprivation, 24 hours, FIG. 1C): induced cell death | effect of pan-caspase inhibitor Z-VAD-FMK on induced cytotoxicity / cell death (A549 cells; 100 μM Z-VAD-FMK, 2 h pre-treatment, 24 hours, cisplatin 50 μM, FIG. 3): did not rescue, but somehow increased | toxicity in normal cells [3]: much reduced toxicity
